Reference: US8993586B2, “N1/N2-lactam acetyl-CoA carboxylase inhibitors” (Pfizer Inc., priority 2010, dated 2015)

Experiments:
[1] = target: recombinant human ACC1 (rhACC1) (Homo sapiens (Human), UniProt Q13085); assay: recombinant hACC1 Transcreener ADP detection FP assay; assay type: biochemical; settings: 50 μM ATP, 120 min at 25° C.
Method: (§1) For example direct inhibition of ACC activity, for the compound of Formula (I) was determined using preparations of recombinant human ACC1 (rhACC1) and recombinant human ACC2 (rhACC2).
[1] Preparation of rhACC1. Two liters of SF9 cells, infected with recombinant baculovirus containing full length human ACC1 cDNA, were suspended in ice-cold lysis buffer (25 mM Tris, pH 7.5; 150 mM NaCl; 10% glycerol; 5 mM imidazole (EMD Bioscience; Gibbstown, N.J.); 2 mM TCEP (BioVectra; Charlottetown, Canada); Benzonase nuclease (10000 U/100 g cell paste; Novagen; Madison, Wis.); EDTA-free protease inhibitor cocktail (1 tab/50 mL; Roche Diagnostics; Mannheim, Germany). Cells were lysed by 3 cycles of freeze-thaw and centrifuged at 40,000×g for 40 minutes (4° C.). Supernatant was directly loaded onto a HisTrap FF crude column (GE Healthcare; Piscataway, N.J.) and eluted with an imidazole gradient up to 0.5 M over 20 column volumes (CV). ACC1-containing fractions were pooled and diluted 1:5 with 25 mM Tris, pH 7.5, 2 mM TCEP, 10% glycerol and direct loaded onto a CaptoQ (GE Healthcare) column and eluted with an NaCl gradient up to 1 M over 20 CV's. Phosphate groups were removed from purified ACC1 by incubation with lambda phosphatase (100 U/10 μM target protein; New England Biolabs; Beverly, Mass.) for 14 hours at 4° C.; okadaic acid was added (1 μM final concentration; Roche Diagnostics) to inhibit the phosphatase. Purified ACC1 was exchanged into 25 mM Tris, pH 7.5, 2 mM TCEP, 10% glycerol, 0.5 M NaCl by 6 hour dialysis at 4° C. Aliquots were prepared and frozen at −80° C.
[2] Measurement of rhACC1 inhibition. hACC1 was assayed in a Costar #3676 (Costar, Cambridge, Mass.) 384-well plate using the Transcreener ADP detection FP assay kit (Bellbrook Labs, Madison, Wis.) using the manufacturer's recommended conditions for a 50 μM ATP reaction. The final conditions for the assay were 50 mM HEPES, pH 7.2, 10 mM MgCl2, 7.5 mM tripotassium citrate, 2 mM DTT, 0.1 mg/mL BSA, 30 μM acetyl-CoA, 50 μM ATP, and 10 mM KHCO3 Typically, a 10 μl reaction was run for 120 min at 25° C., and 10 μl of Transcreener stop and detect buffer was added and the combination incubated at room temp for an additional 1 hour. The data was acquired on a Envision Fluorescence reader (PerkinElmer) using a 620 excitation Cy5 FP general dual mirror, 620 excitation Cy5 FP filter, 688 emission (S) and a 688 (P) emission filter.

[2] = target: recombinant human ACC2 (rhACC2) (Homo sapiens (Human), UniProt O00763); assay: recombinant hACC2 Transcreener ADP detection FP assay; assay type: biochemical; settings: 50 uM ATP, 50 min at 25° C.
recombinant human ACC2 (rhACC2), sequence (O00763 whole entry V2141I): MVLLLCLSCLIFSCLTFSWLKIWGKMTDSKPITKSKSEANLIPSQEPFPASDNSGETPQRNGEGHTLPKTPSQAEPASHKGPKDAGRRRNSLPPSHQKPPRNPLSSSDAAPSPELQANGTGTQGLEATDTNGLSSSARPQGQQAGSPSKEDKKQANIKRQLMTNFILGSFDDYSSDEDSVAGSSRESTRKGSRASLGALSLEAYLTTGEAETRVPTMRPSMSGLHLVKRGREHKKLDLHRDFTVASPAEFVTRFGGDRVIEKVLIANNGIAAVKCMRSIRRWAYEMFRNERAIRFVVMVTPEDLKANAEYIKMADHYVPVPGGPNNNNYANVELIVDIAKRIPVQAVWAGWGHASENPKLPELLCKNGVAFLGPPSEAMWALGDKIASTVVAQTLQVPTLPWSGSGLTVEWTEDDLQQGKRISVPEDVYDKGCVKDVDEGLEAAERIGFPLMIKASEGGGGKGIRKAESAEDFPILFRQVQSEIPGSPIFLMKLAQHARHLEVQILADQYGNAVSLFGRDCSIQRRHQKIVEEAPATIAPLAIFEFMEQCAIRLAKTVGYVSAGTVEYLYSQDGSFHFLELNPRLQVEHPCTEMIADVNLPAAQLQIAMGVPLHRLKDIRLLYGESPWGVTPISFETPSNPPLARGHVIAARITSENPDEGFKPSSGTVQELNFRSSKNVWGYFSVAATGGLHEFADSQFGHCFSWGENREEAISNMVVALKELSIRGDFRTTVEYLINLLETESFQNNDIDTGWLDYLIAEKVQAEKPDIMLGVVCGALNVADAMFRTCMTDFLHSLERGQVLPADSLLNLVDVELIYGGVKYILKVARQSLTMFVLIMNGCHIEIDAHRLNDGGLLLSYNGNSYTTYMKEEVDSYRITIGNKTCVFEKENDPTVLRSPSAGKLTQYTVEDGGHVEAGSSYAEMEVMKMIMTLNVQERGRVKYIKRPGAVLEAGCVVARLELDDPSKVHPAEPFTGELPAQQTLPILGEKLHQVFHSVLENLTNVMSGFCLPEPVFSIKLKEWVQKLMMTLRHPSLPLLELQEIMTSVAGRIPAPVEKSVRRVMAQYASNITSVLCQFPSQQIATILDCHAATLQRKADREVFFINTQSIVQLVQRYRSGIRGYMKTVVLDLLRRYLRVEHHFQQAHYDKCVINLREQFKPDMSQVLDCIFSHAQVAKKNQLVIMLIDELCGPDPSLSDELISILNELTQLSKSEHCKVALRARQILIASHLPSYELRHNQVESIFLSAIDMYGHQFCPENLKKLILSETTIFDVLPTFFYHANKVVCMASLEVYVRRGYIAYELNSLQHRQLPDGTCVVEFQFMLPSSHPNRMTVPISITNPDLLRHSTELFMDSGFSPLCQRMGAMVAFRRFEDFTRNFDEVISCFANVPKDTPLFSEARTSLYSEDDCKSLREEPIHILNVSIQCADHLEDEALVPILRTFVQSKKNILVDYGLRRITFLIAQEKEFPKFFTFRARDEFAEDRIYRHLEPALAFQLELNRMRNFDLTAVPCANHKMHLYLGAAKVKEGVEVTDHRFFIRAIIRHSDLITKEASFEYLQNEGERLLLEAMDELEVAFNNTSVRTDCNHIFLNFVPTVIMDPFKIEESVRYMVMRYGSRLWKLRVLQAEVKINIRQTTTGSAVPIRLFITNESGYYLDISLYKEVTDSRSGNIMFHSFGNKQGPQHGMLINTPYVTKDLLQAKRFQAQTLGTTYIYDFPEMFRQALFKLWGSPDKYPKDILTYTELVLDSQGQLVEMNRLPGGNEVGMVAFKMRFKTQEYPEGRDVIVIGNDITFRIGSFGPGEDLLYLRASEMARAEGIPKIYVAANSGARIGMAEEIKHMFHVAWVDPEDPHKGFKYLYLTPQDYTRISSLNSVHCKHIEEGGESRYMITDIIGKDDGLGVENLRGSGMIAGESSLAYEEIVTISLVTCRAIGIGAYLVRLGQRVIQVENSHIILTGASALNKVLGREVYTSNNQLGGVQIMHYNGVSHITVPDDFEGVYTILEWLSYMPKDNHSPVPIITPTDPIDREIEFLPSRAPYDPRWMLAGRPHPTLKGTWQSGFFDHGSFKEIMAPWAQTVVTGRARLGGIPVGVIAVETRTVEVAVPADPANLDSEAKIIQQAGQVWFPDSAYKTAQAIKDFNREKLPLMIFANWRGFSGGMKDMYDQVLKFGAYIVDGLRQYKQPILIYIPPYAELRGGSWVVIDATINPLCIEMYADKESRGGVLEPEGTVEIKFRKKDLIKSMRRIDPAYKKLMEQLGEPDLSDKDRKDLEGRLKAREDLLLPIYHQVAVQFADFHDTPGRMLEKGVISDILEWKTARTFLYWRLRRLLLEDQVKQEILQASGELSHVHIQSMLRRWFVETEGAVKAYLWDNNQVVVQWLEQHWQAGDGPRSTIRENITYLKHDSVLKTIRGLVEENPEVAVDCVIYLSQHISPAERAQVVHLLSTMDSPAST
Method: as §1
[3] Preparation of rhACC2. Human ACC2 inhibition was measured using purified recombinant human ACC2 (hrACC2). Briefly, a full length Cytomax clone of ACC2 was purchased from Cambridge Bioscience Limited and was sequenced and subcloned into PCDNA5 FRT TO-TOPO (Invitrogen, Carlsbad, Calif.). The ACC2 was expressed in CHO cells by tetracycline induction and harvested in 5 liters of DMEM/F12 with glutamine, biotin, hygromycin and blasticidin with 1 μg/mL tetracycline (Invitrogen, Carlsbad, Calif.). The conditioned medium containing ACC2 was then applied to a Softlink Soft Release Avidin column (Promega, Madison, Wis.) and eluted with 5 mM biotin. […] The purified ACC2 was dialyzed in 50 mM Tris, 200 mM NaCl, 4 mM DTT, 2 mM EDTA, and 5% glycerol. […] For measurement of ACC2 activity and assessment of ACC2 inhibition, test compounds were dissolved in DMSO and added to the rhACC2 enzyme as a 5× stock with a final DMSO concentration of 1%.
[4] Measurement of human ACC2 inhibition. hACC2 was assayed in a Costar #3676 (Costar, Cambridge, Mass.) 384-well plate using the Transcreener ADP detection FP assay kit (Bellbrook Labs, Madison, Wis.) using the manufacturer's recommended conditions for a 50 uM ATP reaction. The final conditions for the assay were 50 mM HEPES, pH 7.2, 5 mM MgCl2, 5 mM tripotassium citrate, 2 mM DTT, 0.1 mg/mL BSA, 30 μM acetyl-CoA, 50 μM ATP, and 8 mM KHCO3 Typically, a 10 μl reaction was run for 50 min at 25° C., and 10 μl of Transcreener stop and detect buffer was added and the combination incubated at room temp for an additional 1 hour. The data was acquired on an Envision Fluorescence reader (PerkinElmer) using a 620 excitation Cy5 FP general dual mirror, 620 excitation Cy5 FP filter, 688 emission (S) and a 688 (P) emission filter.

IC50 [1]	IC50 [2]	SMILES
154 nM	56 nM	CC(C)n1ncc2c1C(=O)NC1(CCN(C(=O)c3cnc4c(Cl)c[nH]c4c3)CC1)C2 [Example 32]
523 nM	108 nM	CNc1nc2cc(C(=O)N3CCC4(CC3)Cc3cnn(C(C)C)c3C(=O)N4)ccc2[nH]1 [Example 33]
116 nM	50 nM	CC(C)n1ncc2c1C(=O)NC1(CCN(C(=O)c3ccc4[nH]nc(Cl)c4c3)CC1)C2 [Example 34]
487 nM	91 nM	CC(C)n1ncc2c1C(=O)NC1(CCN(C(=O)c3ccc4[nH]c(N)nc4c3)CC1)C2 [Example 35]
67 nM	28 nM	CNc1nccc2ccc(C(=O)N3CCC4(CC3)Cc3cnn(C(C)C)c3C(=O)N4)cc12 [Example 36]
302 nM	127 nM	CNc1n[nH]c2ccc(C(=O)N3CCC4(CC3)Cc3cnn(C(C)C)c3C(=O)N4)cc12 [Example 37]
364 nM	107 nM	CNc1cc2ccc(C(=O)N3CCC4(CC3)Cc3cnn(C(C)C)c3C(=O)N4)cc2cn1 [Example 38]
656 nM	177 nM	Cc1nc2cc(C(=O)N3CCC4(CC3)Cc3cn(C(C)C)nc3C(=O)N4)ccc2[nH]1 [Example 40]
68 nM	29 nM	Cc1cc(C(=O)N2CCC3(CC2)Cc2cn(C(C)C)nc2C(=O)N3)cc2cn[nH]c12 [Example 42]
26 nM	10 nM	Cc1cc(C(=O)N2CCC3(CC2)Cc2cn(C(C)(C)C)nc2C(=O)N3)cc2cn[nH]c12 [Example 44]
36 nM	5.3 nM	COc1ccc2cc(C(=O)N3CCC4(CC3)Cc3cn(C(C)(C)C)nc3C(=O)N4)ccc2c1 [Example 46]
30 nM	9.2 nM	COc1ccc2ncc(C(=O)N3CCC4(CC3)Cc3cn(C(C)(C)C)nc3C(=O)N4)cc2c1 [Example 48]
8.5 nM	3.8 nM	COc1ccc2ccc(C(=O)N3CCC4(CC3)Cc3cn(C(C)(C)C)nc3C(=O)N4)cc2c1 [Example 49]

The next lines start with the compound.

SMILES	IC50 [1]	IC50 [2]
Cc1nc2cc(C(=O)N3CCC4(CC3)Cc3cnn(C(C)C)c3C(=O)N4)ccc2[nH]1 [Example 1, 1′-isopropyl-1-(2-methyl-1H-benzo[d]imidazole-5-carbonyl)-4′,6′-dihydrospiro[piperidine-4,5′-pyrazolo[3,4-c]pyridin]-7′(1′H)-one]	417 nM	312 nM
CC(C)n1ncc2c1C(=O)NC1(CCN(C(=O)c3ccc4nn(C)cc4c3)CC1)C2 [Example 3, 1′-isopropyl-1-(2-methyl-2H-indazole-5-carbonyl)-4′,6′-dihydrospiro[piperidine-4,5′-pyrazolo[3,4-c]pyridin]-7′(1′H)-one]	3920 nM	2280 nM
Cc1cc(C(=O)N2CCC3(CC2)Cc2cnn(C(C)C)c2C(=O)N3)cc2c[nH]nc12 [Example 4]	43 nM	38 nM
CC(C)n1ncc2c1C(=O)NC1(CCN(C(=O)c3ccc4[nH]ncc4c3)CC1)C2 [Example 5]	227 nM	174 nM
CC(C)(C)n1ncc2c1C(=O)NC1(CCN(C(=O)c3ccc4n[nH]cc4c3)CC1)C2 [Example 6]	269 nM	305 nM
Cc1cc(C(=O)N2CCC3(CC2)Cc2cnn(C(C)(C)C)c2C(=O)N3)cc2cn[nH]c12 [Example 7]	62 nM	47 nM
CC(C)n1ncc2c1C(=O)NC1(CCN(C(=O)c3cnc4[nH]ccc4c3)CC1)C2 [Example 9]	648 nM	560 nM
CC(C)n1ncc2c1C(=O)NC1(CCN(C(=O)c3cnc4cc[nH]c4c3)CC1)C2 [Example 10]	403 nM	498 nM
CC(C)n1ncc2c1C(=O)NC1(CCN(C(=O)c3cc(Cl)c4[nH]ncc4c3)CC1)C2 [Example 11]	88 nM	72 nM
COc1cc(C(=O)N2CCC3(CC2)Cc2cnn(C(C)C)c2C(=O)N3)cc2[nH]ncc12 [Example 12]	35 nM	37 nM
CC(C)n1ncc2c1C(=O)NC1(CCN(C(=O)c3ccc4c(cnn4C)c3)CC1)C2 [Example 13]	2040 nM	1550 nM
CCc1cc(C(=O)N2CCC3(CC2)Cc2cnn(C(C)C)c2C(=O)N3)cc2cn[nH]c12 [Example 14]	131 nM	91 nM
CCc1n[nH]c2ccc(C(=O)N3CCC4(CC3)Cc3cnn(C(C)C)c3C(=O)N4)cc12 [Example 15]	251 nM	143 nM
Cc1n[nH]c2ccc(C(=O)N3CCC4(CC3)Cc3cnn(C(C)C)c3C(=O)N4)cc12 [Example 16]	118 nM	90 nM
COc1cc(C(=O)N2CCC3(CC2)Cc2cnn(C(C)C)c2C(=O)N3)nc2c(OC)cccc12 [Example 17]	72 nM	31 nM
CC(C)n1ncc2c1C(=O)NC1(CCN(C(=O)c3cc4ncccc4[nH]3)CC1)C2 [Example 18]	657 nM	719 nM
CC(C)n1ncc2c1C(=O)NC1(CCN(C(=O)c3cnc4cn[nH]c4c3)CC1)C2 [Example 19]	1480 nM	2010 nM
CC(C)n1ncc2c1C(=O)NC1(CCN(C(=O)c3cnc4ccccc4c3)CC1)C2 [Example 20]	336 nM	299 nM
CC(C)n1ncc2c1C(=O)NC1(CCN(C(=O)c3ccc4ncccc4c3)CC1)C2 [Example 21]	619 nM	341 nM
CC(C)n1ncc2c1C(=O)NC1(CCN(C(=O)c3ccc4cnccc4c3)CC1)C2 [Example 22]	1250 nM	843 nM
CC(C)n1ncc2c1C(=O)NC1(CCN(C(=O)c3ccc4ccncc4c3)CC1)C2 [Example 23]	621 nM	520 nM
CC(C)n1ncc2c1C(=O)NC1(CCN(C(=O)c3ccc4cccnc4c3)CC1)C2 [Example 24]	688 nM	320 nM
CC(C)n1ncc2c1C(=O)NC1(CCN(C(=O)c3ccc4[nH]nc(C#N)c4c3)CC1)C2 [Example 25]	259 nM	137 nM
COc1ccc2ncc(C(=O)N3CCC4(CC3)Cc3cnn(C(C)C)c3C(=O)N4)cc2c1 [Example 26]	121 nM	60 nM
CC(C)n1ncc2c1C(=O)NC1(CCN(C(=O)c3ccc4[nH]nc(C(N)=O)c4c3)CC1)C2 [Example 27]	296 nM	132 nM
COc1ccc2ccc(C(=O)N3CCC4(CC3)Cc3cnn(C(C)C)c3C(=O)N4)cc2n1 [Example 28]	158 nM	56 nM
CNc1ccc2ccc(C(=O)N3CCC4(CC3)Cc3cnn(C(C)C)c3C(=O)N4)cc2n1 [Example 29]	33 nM	9.2 nM
COc1nccc2ccc(C(=O)N3CCC4(CC3)Cc3cnn(C(C)C)c3C(=O)N4)cc12 [Example 30]	98 nM	30 nM
CC(C)n1ncc2c1C(=O)NC1(CCN(C(=O)c3cnc4[nH]cc(Cl)c4c3)CC1)C2 [Example 31]	179 nM	96 nM
